Earlier results as cited in patent US20210361561A1, “A pouch product suitable for application in an oral cavity” (priority 2019, published 2021).

Columns and labels:
CB1 receptors = CB1 receptors (Homo sapiens, UniProt P21554)
CB2 receptors = CB2 receptors (Homo sapiens, UniProt P34972); conditions: compared with CB1 receptors
CB2 receptors, sequence (P34972 whole entry): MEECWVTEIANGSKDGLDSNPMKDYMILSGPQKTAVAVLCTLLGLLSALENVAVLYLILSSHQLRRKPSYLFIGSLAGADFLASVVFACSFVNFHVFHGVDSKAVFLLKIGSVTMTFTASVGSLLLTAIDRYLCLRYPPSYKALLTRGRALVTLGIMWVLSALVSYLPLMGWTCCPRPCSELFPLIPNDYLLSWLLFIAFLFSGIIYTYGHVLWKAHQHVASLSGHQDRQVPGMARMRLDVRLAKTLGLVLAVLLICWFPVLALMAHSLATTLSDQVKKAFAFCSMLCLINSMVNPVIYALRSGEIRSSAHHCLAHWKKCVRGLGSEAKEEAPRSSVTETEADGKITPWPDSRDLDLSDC

CB1 receptors, sequence (P21554 whole entry): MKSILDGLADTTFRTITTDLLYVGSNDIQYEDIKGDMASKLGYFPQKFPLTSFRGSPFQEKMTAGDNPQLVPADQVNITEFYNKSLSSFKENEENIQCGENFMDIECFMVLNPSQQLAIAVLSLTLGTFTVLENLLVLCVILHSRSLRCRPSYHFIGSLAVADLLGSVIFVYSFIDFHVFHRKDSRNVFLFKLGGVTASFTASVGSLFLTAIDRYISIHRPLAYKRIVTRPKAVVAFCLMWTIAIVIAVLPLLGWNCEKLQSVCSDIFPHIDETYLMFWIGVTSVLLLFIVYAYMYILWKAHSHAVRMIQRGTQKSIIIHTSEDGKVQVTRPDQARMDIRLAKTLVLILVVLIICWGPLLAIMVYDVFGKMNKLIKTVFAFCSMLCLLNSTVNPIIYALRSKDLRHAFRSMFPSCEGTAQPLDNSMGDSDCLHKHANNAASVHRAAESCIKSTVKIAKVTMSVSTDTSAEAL

In the case of `CCCCCc1cc(O)c2c(c1)OC(C)(C)c1ccc(C)cc1-2` [CBN, 6,6,9-Trimethyl-3-pentyl-benzo[c]chromen-1-ol], the “activity at the CB1 receptors” value (CB1 receptors) is given as “partial agonist”, the “affinities relative to THC” value (CB1 receptors; CB1 and CB2 receptors) is given as “lower affinities relative to THC” and the “affinity to CB2 receptors” value (CB2 receptors) is given as “higher affinity”.
